Measurements reported in US6593342B1, “Pharmaceutical compositions comprising 2-quinolones” (Laboratoire L. Lafon, priority 1998, dated 2003).

Columns and labels:
MCF7 = experiment: Clonogenic test (soft agar colony growth), MCF7; assay type: cell-based, human; details: 21 days, control = 100%, mean ± SEM
Source text: 1—Interaction (Stimulation or Inhibition of Proliferation) With the Generation of Clonogenic Cells (Clonogenic Test)
The test used is that described by Hamburger et al. (Science, 1977; 197, 461-463) and Salmon et al. (New England J. Med., 298, 1321-1327). A cell is considered clonogenic if it has the capacity to proliferate and to give rise to a cell colony. “Human tumor stem cells” are the cells which are the source of the neoplastic cells which constitute a given tumor. These tumor stem cells are responsible for the relapse processes which may be observed after surgical resection of primary tumors and are also responsible for the formation of metastases. In a tumor or a tumor cell line, these clonogenic stem cells differ from the other cells of the tumor or from the neoplastic cell line under consideration in that they conserve their capacity to proliferate in the absence of any solid support.
In this test, the tumor cells are cultured on a semi-solid support consisting of agar. […] In a tumor cell population, cultured on such a support, it is these clonogenic cells (associated with an unlimited number of cell divisions and whose proliferation is referred to by M. I. Dawson as “anchorage-independent [clonal] growth”) which are capable of growing. The percentage of these clonogenic cells in a tumor or a cell line ranges between 0.1% and 0.001%.
The influence of the compounds of formulae (I) and (Ia) on the growth of the cell colonies obtained by culturing, for example, the mammalian tumor lines MCF7 and MXT and the colorectal line HT-29 on the semi-liquid culture medium known as “soft agar” was measured. On such a medium, only the clonogenic cells referred to by M. I. Dawson as “anchorage-independent (clonal) cells” survive and grow. The growth of these cells in such a “non-adherent” mode bears witness to their degree of tumorigenicity. The inhibition of the growth of the size of a tumor in which a larger number of clonogenic cells has developed then becomes the evidence of reinforced cytotoxic activity.
Conversely, this test can also reveal that a compound is capable of inhibiting the generation/proliferation of clonogenic cells, thus making the tumor less able to grow and thus reducing the population of tumor cells.
The tumor cell lines studied are maintained in culture in 25 cm^2 falcon dishes. They are then trypsinized and the cells are fully dissociated from each other. The percentage of live cells is determined after staining with trypan blue. A cell suspension at a concentration of from 5·10^4 to 15·10^4 cells/ml (depending on the cell type under consideration) is prepared in a 0.3% agar solution. Next, 200 μl of this suspension are inoculated in Petri dishes 35 mm in diameter, in which are placed 3 ml of a base layer consisting of a 0.5% agar solution. The 200 μl of cell suspension are in turn covered with 1.8 ml of an upper layer consisting of a 0.3% agar solution. The dishes are then placed in an incubator at 37° C., 5% CO2 and 70% humidity until the treatment. This treatment is carried out about 1 to 2 hours after the inoculation. The test compounds are prepared at a concentration 100 times greater than the desired concentration and 50 μl of these treating solutions are placed over the upper layer of agar in the corresponding dishes. In the present study, the final concentration of the test products is 10^−5, 10^−7 and 10^−9 M. The dishes are then kept in an incubator for 21 days. On the 21st day the dishes are treated by depositing on the upper layer 100 μl of a 1 mg/ml solution of MTT (3-(4,5-dimethylthiazol-2-yl)-2,5-diphenyltetrazolinium bromide prepared with RPMI 1640 medium) for 3 h at 37° C. After this period, the cell colonies are fixed by adding 2 ml of formalin per dish. After fixing for 24 hours, the formalin is evaporated off and the number of stained cell colonies, thus consisting of metabolically active cells, and whose surface area is greater than 100 μm^2, is determined using an inverted microscope. […]

[1] = Determination of the maximum tolerated dose (MTD); details: mouse, in vivo, ip; B6D2F1/Jico mice; single intraperitoneal administration, 2.5 to 160 mg/kg; survival over 14 days
Procedure: 3.—Determination of the Maximum Tolerated Dose (MTD):
The evaluation of the maximum tolerated dose was carried out on 4- to 6-week-old B6D2F1/Jico mice. The compounds were administered intraperitoneally at increasing doses graduating from 2.5 to 160 mg/kg. The value of the MTD (expressed in mg/kg) is determined from the observation of the survival rate of the animals over a 14-day period after a single administration of the product under consideration. The weight change of the animals is also monitored during this period. When the value of the MTD is greater than 160 mg/kg, the MTD value is likened to 160 mg/kg by default.
The results of the estimation of the maximum tolerated dose (MTD) are collated in the following table: […]

SMILES | average number of clones of clonogenic cells, percentage relative to control (MCF7; 10^−5 M) [%] | average number of clones of clonogenic cells, percentage relative to control (MCF7; 10^−7 M) [%] | average number of clones of clonogenic cells, percentage relative to control (MCF7; 10^−9 M) [%] | MTD at 14 day [1] [mg/kg]
COc1ccc(-c2cc3c(OC)cc(OC)cc3[nH]c2=O)cc1 [CRL8246, 5,7-Dimethoxy-3-(4-methoxyphenyl)-1,2-dihydro-2-quinolinone] | 126.8 ± 9.9 | 145.7 ± 8.9 | 139.1 ± 6.6 | > 160
COc1ccc(-c2cc3c(OC)cc(OC)cc3n(CCC#N)c2=O)cc1 [CRL8247, 3-[5,7-Dimethoxy-3-(4-methoxyphenyl)-2-oxo-1,2-dihydro-1-quinolinyl]propanenitrile] | 51.5 ± 2.8 | 81.9 ± 1.2 | 98.3 ± 4.2 | > 160
COc1ccc(-c2cc3c(OC)cc(OC)cc3n(CCc3nnn[nH]3)c2=O)cc1 [CRL8256, 1-[2-(1H-1,2,3,4-Tetrazol-5-yl)ethyl]-5,7-dimethoxy-3-(4-methoxyphenyl)-1,2-dihydro-2-quinolinone] | 51.6 ± 3.7 | 83.8 ± 3.4 | 97.9 ± 5.6 | > 160
CCN(CC)C(=O)CCn1c(=O)c(-c2ccc(OC)cc2)cc2c(OC)cc(OC)cc21 [CRL8283, N,N-Diethyl-3-[5,7-dimethoxy-3-(4-methoxy-phenyl)-2-oxo-1,2-dihydro-1-quinolinyl]propanamide] | 56.5 ± 4.9 | 106.2 ± 4.8 | 97.4 ± 5.8 | > 160
CCN(CC)C(=O)Cn1c(=O)c(-c2ccc(OC)cc2)cc2c(OC)cc(OC)cc21 [CRL8315, N,N-Diethyl-2-[5,7-dimethoxy-3-(4-methoxy-phenyl)-2-oxo-1,2-dihydro-1-quinolinyl]acetamide] | 119.6 ± 5.6 | 127 ± 8.8 | 157.1 ± 12.2 | > 160
COc1ccc(-c2cc3c(OC)cc(OC)cc3n(CCN(C)C)c2=O)cc1 [CRL8316, 1-[2-(Dimethylamino)ethyl]-5,7-dimethoxy-3-(4-methoxyphenyl)-1,2-dihydro-2-quinolinone] | 23.2 ± 1.8 | 84 ± 5 | 83.4 ± 4.6 | > 160
